# Experimental data reported in patent US20240226020A1 (AMGEN INC., priority 2021, published 2024).
# “Also recorded” adds a separate entry of the source.
# What was measured:
# [1] = Water dispersion study: pharmacokinetics of 8×120 mg tablets versus tablets dispersed in water; assay type: in vivo, healthy subjects; conditions: plasma; for AUC(0-inf): human, oral, 960 mg, Geometric mean sotorasib AUCinf
# Procedure: Doses were administered orally on Days 1 and 4 during the mornings after an overnight fast of at least 10 hours. A total of 13 subjects entered the study (7 subjects receiving treatment in the sequences of Treatment A followed by Treatment B; and 6 subjects receiving treatment in the sequences of Treatment B followed by Treatment A). Data for all subjects was included in the pharmacokinetic (PK) and safety analyses. […] PK parameters including AUClast, AUCinf, and Cmax were estimated and compared between Treatment A and Treatment B. The natural log-transformed PK parameters were analyzed using a mixed model. The model included treat, period, and sequence as fixed effect and subject nested within a sequence as a random effect. […] Additionally, the pooled estimate (across all treatments) of the within-subject coefficient of variation was calculated, and residual plots were produced to assess the adequacy of the model(s) fitted.
# [2] = Water dispersion study: safety and tolerability; assay type: in vivo; conditions: healthy subjects
# Procedure: Doses were administered orally on Days 1 and 4 during the mornings after an overnight fast of at least 10 hours. A total of 13 subjects entered the study (7 subjects receiving treatment in the sequences of Treatment A followed by Treatment B; and 6 subjects receiving treatment in the sequences of Treatment B followed by Treatment A). Data for all subjects was included in the pharmacokinetic (PK) and safety analyses. […] All events resolved by the end of the study.
# [3] = Compressibility (tablet solid fraction as a function of compaction pressure); assay type: physicochemical
# Procedure: (§1) After compression, tablets were measured for their ejected weight, thickness and diameter. Tablets were then stored for minimally 48 hours to allow for complete viscoelastic relaxation. The recovered dimensions were measured prior to diametrical compression testing performed using the HB compaction simulator operating at a constant loading rate of 5 mm/min. The force required to cause diametrical failure was recorded and used to compute radial tensile strength values.
# Compressibility: The ability of a powder bed to be reduced in volume due to the application of an applied stress gives an indication of powder compressibility. This behavior is described in terms of tablet solid fraction as a function of compaction pressure (see Table 38). Interpretation of the data considers the change in solid fraction between two pressure conditions. The increased difference in SF at a high pressure and a low pressure is indicative of increased compressibility of the blend. […] Therefore, a 3:1 plastic to brittle diluent ratio, e.g., a 3:1 Avicel PH102 to lactose ratio, is preferred.
# [4] = Compactibility and tabletability (radial tensile strength, compression pressure); assay type: physicochemical
# Procedure: as §1
# Compactibility and Tabletability: The ability of a powder bed to cohere into or to form a compact gives an indication of powder compactibility. This behavior is described as a plot of tablet radial tensile strength (RTS) as a function of tablet solid fraction (SF) (FIG. 12A). For understanding fundamental material behavior, it is advantageous to compare materials at similar levels of solid fraction. […] The compactibility of all three placebo blends can be classified as “low” because each blend has been previously dry granulated. Tabletability is another relevant parameter which is useful in identifying the pressure needed to achieve a specific tablet hardness or tensile strength. This behavior is described as a plot of tablet radial tensile strength (RTS) as a function of compaction pressure (FIG. 12B).
# [5] = tested on: extracellular signal-regulated kinase (ERK); conditions: preclinical studies; cited from earlier work
structure (smiles),measurement,setting,value
"C=CC(=O)N1CCN(c2nc(=O)n(-c3c(C)ccnc3C(C)C)c3nc(-c4c(O)cccc4F)c(F)cc23)[C@@H](C)C1 (atropisomer, axis not shown; (M)) [Sotorasib, 6-fluoro-7-(2-fluoro-6-hydroxyphenyl)-(1M)-1-[4-methyl-2-(propan-2-yl)pyridin-3-yl]-4-[(2S)-2-methyl-4-(prop-2-enoyl)piperazin-1-yl]pyrido[2,3-d]pyrimidin-2(1H)-one]",median sotorasib tmax,"[1]; 8×120 mg tablets (Formulation #8) dispersed in water (Treatment B), single oral dose, fasted",1 h
same,AUC(0-inf),[1]; administered as tablets (Treatment A),25300 ng·h/mL
same,AUC(0-inf),[1]; administered as water dispersion (Treatment B),26400 ng·h/mL
same,Safety and tolerability,[2]; single doses of 960 mg as tablets dispersed in water and as tablets,safe and well tolerated; also recorded: safe and well-tolerated
same,"Clinical laboratory evaluations, vital signs, 12-lead ECGs",[2]; single doses of 960 mg,no clinically significant findings
same,Serious adverse events,[2]; single doses of 960 mg,no serious adverse events
same,Treatment-emergent adverse events,"[2]; single doses of 960 mg, all mild, related to sotorasib, resolved","Three treatment-emergent adverse events of constipation, nausea and vomiting"
same,applied pressure required to produce a tablet with an out of die solid fraction of 0.85,[3],approximately 145 MPa
same,Assessment of compressibility and compactibility,[4],high levels of compressibility combined with very low levels of compactibility
same,solid fraction at a theoretical strength value of 2 MPa,[4],0.85
same,RTS (MPa) @ 0.85 SF,[4]; 0.85 SF,1.59 MPa
same,RTS (MPa) @ 150 MPa,[4]; 150 MPa,1.62 MPa
same,CP (MPa) @ RTS = 2 MPa,[4]; RTS = 2 MPa,149.00 MPa
same,SF @ RTS = 2 MPa,[4]; RTS = 2 MPa,0.85
same,radial tensile strength,[4]; compressed to a peak pressure of 150 MPa,1.62 MPa
same,radial tensile strength,[4]; compressed to an out of die solid fraction of 0.85,1.59 MPa
same,phosphorylation of extracellular signal-regulated kinase (ERK),[5],inhibited nearly all detectable phosphorylation
